Measurements taken from patent US10966978B2, “Dose and regimen for HDM2-p53 interaction inhibitors” (Novartis AG, priority 2016, dated 2021).
Read-outs that look alike come from different tables or passages of the source. Marks after values point to notes of the source that are not given here.

Tested on: advanced TP53 wild-type (WT) leukemias (AML, ALL)
Assay type: in vivo, human
Description: Tables 5 and 6 and FIG. 6 provide efficacy information for dosing regimen 1B in comparison to other regimens.

[1] = AML CR patient, 1A 250 mg, March 2017
[2] = AML CR patient, 1A 400 mg, March 2017
[3] = AML CR patient, 2C 45 mg, March 2017
[4] = AML CRi patient, 1B 150 mg, March 2017
[5] = CR, Reg 1A 250 mg, person, September 2017
[6] = CR, Reg 1A 400 mg, Male/71, September 2017
[7] = CR, Reg 1B 120 mg, Male/67, September 2017
[8] = CR, Reg 2C 45 mg, Male/76, September 2017
[9] = CR, Reg 2C 45 mg, person, September 2017
[10] = CRi, Reg 1A 250 mg, person, September 2017
[11] = CRi, Reg 1B 150 mg, person, September 2017
[12] = CRi, Reg 2C 45 mg, Male/70, September 2017
[13] = CRi, Reg 2C 45 mg, Male/79, September 2017
[14] = CRi, Reg 2C 45 mg, person one, September 2017
[15] = CRi, Reg 2C 45 mg, person three, September 2017
[16] = Dose escalation, Regimen 2C 45 mg (8 patients), September 2017
[17] = Dose expansion, Regimen 2C 45 mg (17 patients), September 2017
[18] = Regimen 1A (n = 15), March 2017

With `COc1ncc(-c2nc3c(n2C(C)C)[C@H](c2ccc(Cl)cc2)N(c2cc(Cl)cn(C)c2=O)C3=O)c(OC)n1` [HDM201, (S)-5-(5-Chloro-1-methyl-2-oxo-1,2-dihydro-pyridin-3-yl)-6-(4-chloro-phenyl)-2-(2,4-dimethoxy-pyrimidin-5-yl)-1-isopropyl-5,6-dihydro-1H-pyrrolo[3,4-d]imidazol-4-one] the “Count recovery time from C1D1” value [1] was 48 days, the “Duration of CR/CRi” value [1] was 50 days and the “Time to CR/CRi” value [1] was 7 weeks. For the same compound, the “Count recovery time from C1D1” value [2] was 40 days, the “Duration of CR/CRi” value [2] was 23 days and the “Time to CR/CRi” value [2] was 6 weeks. The “Count recovery time from C1D1” value [3] was 32 days, the “Duration of CR/CRi” value [3] was 152 days and the “Time to CR/CRi” value [3] was 5 weeks. For the same compound, the “Duration of CR/CRi” value [4] was 51 days, the “Time to CR/CRi” value [4] was 11 weeks and the “Duration of CR/CRi” value (AML CRi patient, 2C 45 mg, donor five, March 2017, patient withdrew consent while on CRi) was 1* days. For the same compound, the “Duration of CR/CRi” value (AML CRi patient, 2C 45 mg, donor two, March 2017, patient ongoing at data cut off) was 1^† days, the “CR/CRi results, number of patients” value (AML patients, Regimen 1B, September 2017) was “The already observed 2 CR/CRi results out of the small number of patients treated so far demonstrate the strong antitumor activity of the HDM201 in AML patients when dosed according to Regimen 1B” and the “Count recovery time from C1D1” value [5] was 48 days. For the same compound, the “Duration of CR/CRi” value [5] was 50 days, the “Time to CR/CRI” value [5] was 7 weeks and the “Count recovery time from C1D1” value [6] was 40 days. For the same compound, the “Duration of CR/CRi” value [6] was 23 days, the “Time to CR/CRI” value [6] was 6 weeks and the “Count recovery time from C1D1” value [7] was 28 days. For the same compound, the “Duration of CR/CRi” value [7] was 45 days, the “Time to CR/CRI” value [7] was 4 weeks and the “Count recovery time from C1D1” value [8] was 32 days. For the same compound, the “Duration of CR/CRi” value [8] was 152 days, the “Time to CR/CRI” value [8] was 5 weeks and the “Count recovery time from C1D1” value [9] was 30 days. For the same compound, the “Duration of CR/CRi” value [9] was 41 days, the “Time to CR/CRI” value [9] was 4 weeks and the “Duration of CR/CRi” value [10] was 67 days. For the same compound, the “Time to CR/CRI” value [10] was 3 weeks, the “Duration of CR/CRi” value [11] was 51 days and the “Time to CR/CRI” value [11] was 11 weeks. For the same compound, the “Duration of CR/CRi” value [12] was 1 days, the “Time to CR/CRI” value [12] was 12 weeks and the “Duration of CR/CRi” value [13] was 62 days. The “Time to CR/CRI” value [13] was 4 weeks, the “Duration of CR/CRi” value [14] was 105 days and the “Time to CR/CRI” value [14] was 4 weeks. For the same compound, the “Duration of CR/CRi” value [15] was 40 days, the “Time to CR/CRI” value [15] was 7 weeks and the “CR, number of patients” value (Dose escalation, Regimen 1A 250 mg (3 patients), September 2017) was 250 mg (3): 1 CR. For the same compound, the “CR, number of patients” value (Dose escalation, Regimen 1A 400 mg (9 patients), September 2017) was 400 mg (9): 1 CR, the “CR, number of patients” value (Dose escalation, Regimen 1B 120 mg (6 patients), September 2017) was 120 mg (6): 1 CR and the “CRi, number of patients” value (Dose escalation, Regimen 1B 150 mg (6 patients), September 2017) was 150 mg (6): 1 CRi. For the same compound, the “CR, number of patients” value [16] was 1, the “CRi, number of patients” value [16] was 3 and the “CRi, number of patients” value (Dose expansion, Regimen 1A 250 mg, 6 pts, September 2017) was 1 CRi. For the same compound, the “CR, number of patients” value [17] was 1 CR, 1CRi, the “CRi, number of patients” value [17] was 1 CR, 1CRi and the “BOR: CR” value [18] was 2 (13) n (%). The “BOR: CRi” value [18] was 0 (0) n (%), the “ORR (CR + CRi + PR)” value [18] was 2 (13) n (%) and the “BOR: CR” value (Regimen 1B (n = 6), March 2017) was 0 (0) n (%). The “BOR: CRi” value (Regimen 1B (n = 6), March 2017) was 1 (17) n (%), the “ORR (CR + CRi + PR)” value (Regimen 1B (n = 6), March 2017) was 1 (17) n (%) and the “BOR: CR” value (Regimen 2A (n = 7), March 2017) was 0 (0) n (%). The “BOR: CRi” value (Regimen 2A (n = 7), March 2017) was 0 (0) n (%), the “ORR (CR + CRi + PR)” value (Regimen 2A (n = 7), March 2017) was 0 (0) n (%) and the “BOR: CR” value (Regimen 2C (n = 7), March 2017) was 1 (14) n (%). For the same compound, the “BOR: CRi” value (Regimen 2C (n = 7), March 2017) was 3 (43) n (%), the “ORR (CR + CRi + PR)” value (Regimen 2C (n = 7), March 2017) was 4 (57) n (%) and the “BOR: CR” value (Total (N = 35), March 2017) was 3 (9) n (%). For the same compound, the “BOR: CRi” value (Total (N = 35), March 2017) was 4 (11) n (%), the “ORR (CR + CRi + PR)” value (Total (N = 35), March 2017) was 7 (20) n (%) and the “patients with CRi” value (regimen 1B, hematological tumors) was “One patient”.
